Measurements reported in patent publication US11672794B2, “Therapeutic targeting of the BAP1 complex in cancer” (NORTHWESTERN UNIVERSITY, priority 2019, dated 2023).

Experiments:
recombinant BAP1 = target: T1, recombinant BAP1 (Homo sapiens, UniProt Q92560); assay: Ub-AMC assay of BAP1 deubiquitinase activity; type: biochemical; settings: 100 nM Ub-AMC, 0.1 nM recombinant BAP1
T1 construct: made in house; host or cells: bacteria
T1 sequence (Q92560 1-729): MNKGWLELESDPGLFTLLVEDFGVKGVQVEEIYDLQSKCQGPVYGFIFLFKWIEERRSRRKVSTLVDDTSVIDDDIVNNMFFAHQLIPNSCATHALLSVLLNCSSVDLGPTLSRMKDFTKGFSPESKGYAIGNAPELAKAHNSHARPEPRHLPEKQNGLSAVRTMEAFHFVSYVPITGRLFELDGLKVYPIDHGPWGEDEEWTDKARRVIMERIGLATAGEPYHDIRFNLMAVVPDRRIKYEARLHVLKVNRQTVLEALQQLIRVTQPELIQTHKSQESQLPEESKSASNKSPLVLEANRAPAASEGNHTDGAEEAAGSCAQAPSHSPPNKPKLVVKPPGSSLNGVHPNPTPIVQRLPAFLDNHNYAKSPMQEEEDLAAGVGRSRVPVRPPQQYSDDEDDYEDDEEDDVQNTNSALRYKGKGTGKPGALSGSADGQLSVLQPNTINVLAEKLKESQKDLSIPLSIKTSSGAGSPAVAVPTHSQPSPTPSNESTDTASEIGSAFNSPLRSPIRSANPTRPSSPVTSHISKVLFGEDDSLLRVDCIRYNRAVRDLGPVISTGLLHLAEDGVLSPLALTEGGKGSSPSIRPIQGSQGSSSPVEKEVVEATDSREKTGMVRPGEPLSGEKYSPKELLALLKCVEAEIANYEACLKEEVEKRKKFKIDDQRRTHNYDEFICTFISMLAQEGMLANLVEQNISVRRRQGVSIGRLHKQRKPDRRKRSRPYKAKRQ
From the text: (§1) Since the truncated ASXL1 functions as co-activator of BAP1 in human leukemic cells, and based on previous studies, mutations in ASXL1 lead to the hyper-activation of BAP1 in mice (16), we sought to identify small molecule inhibitors that inhibit BAP1 catalytic activity. Although crucial catalytic residues in BAP1 have been identified through general homology with other deubiquitinases, a detailed atomic resolution structure of BAP1 has yet to be determined. Therefore, because a structure-based approach is currently unattainable, we adopted a structure-agnostic unbiased biochemical screen for small molecule inhibitors of BAP1′s deubiquitinase activity. Toward this goal, we employed an Ubiquitin- 7-amino-4-methylcoumarin (Ub-AMC) screening platform. Ubiquitin-AMC (Ub-AMC) is a fluorogenic substrate for ubiquitin hydrolases based on the C-terminus derivatization of ubiquitin with 7-amido-4-methylcoumarin (AMC). Upon incubation with a protease recognizing Ubiquitin, such as BAP1, AMC is released and the increase in fluorescence can be measured (7, 17) (FIG. 4A). We optimized the screening condition and finally used 100 nM Ub-AMC and 0.1 nM recombinant BAP1 (FIG. 10A) for the reaction (FIG. 10B). The top 1% hits from 3,000 of 8-compound mixtures were subjected for a secondary validation (FIG. 10C, D). […]

[1] = test system: 293T-ASXL1-Y591* mutant cells vs 293T-ASXL1-WT cells; assay: Cell viability (cell counting) of 293T-ASXL1-WT and 293T-ASXL1-Y591* mutant cells, 72 hours; type: cell-based, human; settings: cell counting assay
Experimental: FIG. 11. Analog for compound #7152836 A) Structure of 16 analogs for compound #7152836. B) Dose-dependent inhibition of BAP1 activity the analogs in (A) in Ub-AMC assay. C) 293T-ASXL1-WT, 293T-ASXL1-Y591* mutant cells were treated with different concentrations of Doxorubicin, HSP90 inhibitor PU-H71, UCHLS inhibitor b-AP1 and iBAP for 72 hours. The cell viability was determined by cell counting assay.
as §1, with “Ubiquitin-AMC (Ub-AMC) is a fluorogenic substrate for ubiquitin hydrolases based on the C-terminus derivatization of ubiquitin with 7-amido-4-methylcoumarin (AMC).” left out, “4A).” for “4A). We optimized the screening condition and finally used 100 nM Ub-AMC and 0.1 nM recombinant BAP1 (FIG. 10A) for the reaction (FIG. 10B). The top 1% hits from 3,000 of 8-compound mixtures were subjected for a secondary validation (FIG. 10C, D).”

Compound	inhibition of BAP1 catalytic activity in vitro (recombinant BAP1)	difference of cell viability between ASXL1 wild type and mutant cells [1]
COc1ccccc1C(=O)NC(=S)Nc1ccc2oc(-c3cc(F)c(F)cc3Cl)nc2c1 [#7231120]	could efficiently inhibit BAP1 catalytic activity	
C=CC(=O)N1C/C(=C\c2ccc([N+](=O)[O-])cc2)C(=O)/C(=C/c2ccc([N+](=O)[O-])cc2)C1 [UCHLS inhibitor]		did not observe any significant difference
